Measurements reported in patent publication US11465978B2, “Anthranilic amides and the use thereof” (THE ADMINISTRATORS OF THE TULANE EDUCATIONAL FUND, priority 2013, dated 2022).
Counter-ions that a name gives are not always drawn.

Experiments:
[1] = test system: pERK1/2; assay: Western blot, inhibition of EGF-mediated formation of pERK1/2 in MDA-MB-231 cells; format: cell-based; conditions: for pERK-½ decrease (%) / pERK-½ relative activity (%): Example 3 table, MDA-MB-231, EGF stimulation; for pERK-½ decrease (%): DMSO = 0; for inhibition at 10 µM: Homo sapiens, MDA-MB-231, Table 1, MDA-MB-231, compounds 10 μM 30 min, then EGF 50 ng/mL 15 min, read-out: cellular pERK1/2 decrease (%); for pERK-½ relative activity (%): DMSO = 100; for cellular pERK1/2 activation (printed in the decrease column): Table 1, cell marked 'activation'
Procedure: (§1) FIG. 9 is a set of bar graphs showing a Western blot analysis of potential MEK5 inhibitors. The MDA-MB-231 triple negative breast cancer cell line was pretreated with compounds (10 μM) for 30 minutes followed by stimulation with epidermal growth factor (EGF, 50 ng/mL) for 15 minutes. Vehicle-treated cells were pretreated with DMSO for 30 minutes prior to EGF stimulation for 15 minutes. Protein visualization and quantification analysis were performed using LI-COR Odyssey Imager. * P<0.05 vs. Vehicle, one-way ANOVA followed by Tukey-Kramer test (n=3).
(§2) A number of compounds were tested for their potential as MEK5 inhibitors. The MDA-MB-231 triple negative breast cancer cell line was pretreated with 10 μM of compounds 24, 9b, 9a, 9c, 9e, 9f, 9d, 9h, 23, 7, and 15 for 30 minutes followed by stimulation with epidermal growth factor (EGF, 50 ng/mL) for 15 minutes. Vehicle-treated cells and known MEK1/2 inhibitor cells were pretreated with DMSO and U0126 respectively for 30 minutes prior to EGF stimulation for 15 minutes. Protein visualization and quantification analysis was performed using LI-COR Odyssey Imager. The results of the Western blot analysis are shown in FIG. 9. * P<0.05 vs. Vehicle, one-way ANOVA followed by Tukey-Kramer test (n=3).
(§3) MDA-MB-231 cells were grown on 10 cm cell culture plates [Sarstedt] in Dulbecco's Modified Eagle's Medium (DMEM; Gibco) with Ham's F12 Nutrient Mixture (1:1) (Invitrogen), 10% heat-inactivated FBS [Atlanta Biological and 0.5% penicillin/streptomycin [Gibco]. Cells were maintained at 37° C. with 5% CO2. Plating of the cells was done 36 hours before treatment in 35 mm culture plates [Sarstedt] and allowed to reach confluence. To test MEK-5 inhibitors, the cells were treated with epidermal growth factor (EGF; Sigma-Aldrich) 30 min after treatment with the compounds. 15 min after the addition of EGF, the cells were washed with 1×PBS [Sigma-Aldrich] and then lysed in 1% Triton X-100 buffer containing 20 mM Tris (pH 6.8), 137 mM NaCl, 25 mM beta glycerophosphate, 2 mM NaPPi, 2 mM EDTA, 1 mM Na3VO4, 10% glycerol, 5 μg/mL leupeptin, 5 μg/mL aprotinin, 2 mM benzamidine, 0.5 mM DTT, and 1 mM PMSF. The lysates were then centrifuged at 10,000 rpm for 10 min at 4° C.
(§4) Total protein content was assessed by Bradford Bio-Rad protein assay (Cat. No. 500-0006, Bio-Rad, Hercules, Calif.) and 30 μg of protein was loaded on a 8% SDS-PAGE gel for phosphorylated and total ERK1/2 and ERK5 proteins. After running the samples, gels were transferred to a nitrocellulose membrane (Cat. No. 926-31092, Licor Biosciences, Lincoln, Nebr.). After transfer, membranes were washed for 5 min with 1×PBS and blocked for 1 h in a Casein Blocking Buffer (Cat. No. 927-40200, Licor Biosciences) at room temperature. Membranes were then incubated overnight at 4° C. in primary antibody in CBB with 0.2% Tween-20. Antibodies included rabbit anti-phospho-ERK1/2 (Dilution—1:1000, Cat. No. 9101, Cell Signaling, Beverly, Mass.), mouse anti-total ERK1/2 (Dilution—1:1000, Cat. No. 9107, Cell Signaling), and rabbit anti-total ERK5 (Dilution—1:1,000, Cat. No. 3372, Cell Signaling). Mouse anti-α-Tubulin (Dilution—1:10,000, Cat. No. T5168, Sigma-Aldrich) was used as a loading control. After incubation with primary antibody, blots were washed in 1×PBS solution with 0.2% Tween-20 (1×PBS-T) and incubated with goat anti-rabbit (Dilution—1:10,000, Cat. No. 926-68021, LICOR Biosciences) and goat anti-mouse (Dilution—1:10,000, Cat. No. 926-32210, LICOR Biosciences) secondary antibodies for 1 h at room temperature. After washing the membranes with 1×PBS-T, the protein bands were visualized on an Odyssey Infrared Imager and quantified with Odyssey software (LICOR Biosciences).

[2] = test system: pERK5; assay: Western blot, inhibition of EGF-mediated formation of pERK5 in MDA-MB-231 cells; format: cell-based; conditions: for pERK-5 decrease (%) / pERK-5 relative activity (%): Example 3 table, MDA-MB-231, EGF stimulation; for pERK-5 decrease (%): DMSO = 0; for inhibition at 10 µM: Homo sapiens, MDA-MB-231, Table 1, MDA-MB-231, compounds 10 μM 30 min, then EGF 50 ng/mL 15 min, read-out: cellular pERK5 decrease (%); for pERK-5 relative activity (%): DMSO = 100; for cellular pERK5 activation (printed in the decrease column): Table 1, cell marked 'activation'
Procedure: as §1, §2, §3, §4

Row | Structure (SMILES) | pERK-½ decrease (%) [1] [%] | inhibition at 10 µM [1] [%] | pERK-5 decrease (%) [2] [%] | inhibition at 10 µM [2] [%] | also measured
1 | O=C(O)c1ccc(F)c(F)c1Nc1ccc(I)cc1F [Compound 7, 3,4-difluoro-2-((2-fluoro-4-iodophenyl)amino)benzoic acid] | 98.5 | 98.5 | 20.1 | 20.1 | –
2 | CN(C)C(=O)c1ccc(F)c(F)c1Nc1ccc(I)cc1F [Compound 9a, 3,4-difluoro-2-((2-fluoro-4-iodophenyl)amino)-N,N-dimethylbenzamide] | 87.3 | 87.3 | 0.2 | 0.2 | –
3 | CCN(CC)C(=O)c1ccc(F)c(F)c1Nc1ccc(I)cc1F [Compound 9b, N,N-diethyl-3,4-difluoro-2-((2-fluoro-4-iodophenyl)amino)benzamide] | 5.5 | 5.5 | – | – | pERK-5 relative activity (%) [2]: 7.4%; cellular pERK5 activation (printed in the decrease column) [2]: activation (−7.4) %
4 | CNC(=O)c1ccc(F)c(F)c1Nc1ccc(I)cc1F [Compound 9c, 3,4-difluoro-2-((2-fluoro-4-iodophenyl)amino)-N-methylbenzamide] | 99.6 | 99.6 | 20.4 | 20.4 | –
5 | CCNC(=O)c1ccc(F)c(F)c1Nc1ccc(I)cc1F [Compound 9d, N-ethyl-3,4-difluoro-2-((2-fluoro-4-iodophenyl)amino)benzamide] | 98.6 | 98.6 | 8.5 | 8.5 | –
6 | COC(=O)c1ccc(F)c(F)c1Nc1ccc(I)cc1F [Compound 9e, Methyl 3,4-difluoro-2-((2-fluoro-4-iodophenyl)amino)benzoate] | 98.9 | 98.9 | 13.0 | 13 | –
7 | O=C(c1ccc(F)c(F)c1Nc1ccc(I)cc1F)N1CCNCC1 [Compound 9f, (3,4-difluoro-2-((2-fluoro-4-iodophenyl)amino)phenyl)(piperazin-1-yl)methanone hydrochloride] | 99.0 | 99 | – | – | pERK-5 relative activity (%) [2]: 6.2%; cellular pERK5 activation (printed in the decrease column) [2]: activation (+4.4) %
8 | CC(C)(C)OC(=O)N1CCN(C(=O)c2ccc(F)c(F)c2Nc2ccc(I)cc2F)CC1 [Compound 9g, Tert-butyl 4-(3,4-difluoro-2-((2-fluoro-4-iodophenyl)amino)benzoyl)piperazine-1-carboxylate] | 70.9 | 70.9 | 8.4 | 8.4 | –
9 | CN(C)CCN(C)C(=O)c1ccc(F)c(F)c1Nc1ccc(I)cc1F [Compound 9h, N-(2-(dimethylamino)ethyl)-3,4-difluoro-2-((2-fluoro-4-iodophenyl)amino)-N-methylbenzamide hydrochloride] | 27.9 | 28.2 | 9.4 | 9 | –
10 | O=C(O)c1ccc(F)c(F)c1Nc1ccccc1 [Compound 12, 3,4-difluoro-2-(phenylamino)benzoic acid] | 7.1 | – | 10.4 | – | –
11 | O=C(O)c1ccc(F)c(F)c1Nc1ccccc1F [Compound 13, 3,4-difluoro-2-((2-fluorophenyl)amino)benzoic acid] | – | – | 11.1 | – | pERK-½ relative activity (%) [1]: 7.1%
12 | CN1CCN(C(=O)c2ccc(F)c(F)c2Nc2ccccc2)CC1 [Compound 15] | – | – | 82.4 | 82.4 | pERK-½ relative activity (%) [1]: 8.5%; cellular pERK1/2 activation (printed in the decrease column) [1]: activation (+8.5) %
13 | CN1CCN(C(=O)c2ccccc2Nc2ccccc2)CC1 [Compound 23, (4-methylpiperazin-1-yl)(2-(phenylamino)phenyl)methanone] | 29.3 | 29.6 | 71 | – | cellular pERK1/2 activation (printed in the decrease column) [1]: +5.5%
14 | CN1CCN(C(=O)c2ccccc2Nc2ccc(I)cc2F)CC1 [Compound 24, (2-((2-fluoro-4-iodophenyl)amino)phenyl)(4-methylpiperazin-1-yl)methanone hydrochloride] | 33.5 | 33.5 | 30.9 | 20.9 | –
15 | N#CC(=C(/N)Sc1ccccc1N)/C(C#N)=C(\N)Sc1ccccc1N [Compound U0126, reference compound] | 99.6 | – | 43 | – | –
16 | O=C(c1ccc(F)c(F)c1Nc1ccc(I)cc1F)N1CCOCC1 [IC-3-93] | – | 47.8 | – | 76.3 | –
17 | O=C(c1ccc(F)c(F)c1Nc1ccc(I)cc1F)N1CCCCC1 [IC-3-97] | – | 42.4 | – | 87.1 | –
18 | O=C(NCCO)c1ccc(F)c(F)c1Nc1ccc(I)cc1F [IC-3-102] | – | -31.1 | – | 47.9 | –
19 | O=C(N[C@@H](CO)C(=O)O)c1ccc(F)c(F)c1Nc1ccc(I)cc1F [IC-3-111] | – | 85 | – | – | –
20 | O=C(N[C@H](CO)C(=O)O)c1ccc(F)c(F)c1Nc1ccc(I)cc1F [IC-3-117] | – | 80.8 | – | 127 | –
21 | CN1CCN(C(=O)c2ccc(F)c(F)c2Nc2ccc(I)cc2F)CC1 [IC-D-122b] | – | 39 | – | 33 | –
22 | O=C(NOC[C@H](O)CO)c1ccc(F)c(F)c1Nc1ccc(I)cc1F [PD 0325901, reference compound] | 99.7 | – | 95.9 | – | –
23 | CN(c1ccc(I)cc1F)c1c(C(=O)O)ccc(F)c1F [SC-2-32, 3,4-difluoro-2-((2-fluoro-4-iodophenyl)(methyl)amino)benzoic acid] | 33.5 | – | – | – | pERK-5 relative activity (%) [2]: 5.5%
24 | NC(=O)c1ccc(F)c(F)c1Nc1ccccc1F [SC-2-37, 3,4-difluoro-2-((2-fluorophenyl)amino)benzamide] | 52.8 | – | 56.1 | – | melting point: 157.6 to 161.2 °C
25 | CN1CCN(C(=O)c2ccc(F)c(F)c2Nc2ccccc2F)CC1.O=C(O)/C=C/C(=O)O [SC-2-45, (3,4-difluoro-2-((2-fluorophenyl)amino)phenyl)(4-methylpiperazin-1-yl)methanone mono-fumarate] | 16.5 | – | 40.5 | – | –
26 | CCOc1cc(N2CCC(O)CC2)ccc1Nc1ncc2c(n1)N(C)c1ccccc1C(=O)N2C [XMD8-92, reference compound] | 50.1 | – | 95.2 | – | –
